“And” between values parts separate entries of the source, which are not always exact repeats. Equal entries are not always repeated.
What was measured:
Type in all cases: in vivo, mice
[1] = tested on: GB208_1; test: INFγ ELISPOT, total splenocytes, responses to GB208_1; conditions: re-stimulation GB208_1 10 μg/ml, per mouse
Method: (§1) The impact of synthetic TQL-1055 (Compound I-4) on CD4 and CD8 T cell responses to peptides was tested in mice as a single adjuvant and in combination with Genocea Biosciences GEN-AS2 adjuvant and sGenocea Biosciences GEN-AS3 adjuvant according to the plan in the table below. The GEN-AS2 and GEN-AS3 adjuvant are TLR agonist-based adjuvant systems. Specific peptides tested include Genocea synthetic long peptides (SLPs) GB208_1, GB208_4, GB208_8, which are tumor-specific T cell antigens identified by neo-antigen screening, however the results are expected to replicate to other types of peptides. Combinations including an adjuvant composition with the SLPs were administered to mice via s.c. scruff according to the plan below. Injections were administered to groups according to the plan in the table below. Responses in mice were measured seven (7) or fourteen (14) days after the final injection.
(§2) T cell responses were measured by the following ELISPOT analyses: • 1. Total splenocytes: • a. Combined responses to GB208_1, _4, _8; re-stimulation with overlapping peptides (OLPs) at 10 μg/ml; • b. Responses to GB208_1; re-stimulation GB208_1 at 10 μg/ml; • c. Responses to GB208_4; re-stimulation GB208_4 at 10 μg/ml; • d. Responses to GB208_8; re-stimulation GB208_8 at 10 μg/ml; • 2. CD4 enriched: combined responses to GB208_1, _4, _8; re-stimulation with overlapping peptides at 20 μg/ml; and • 3. CD8 enriched: combined responses to GB208_1, _4, _8; re-stimulation with overlapping peptides at 20 μg/ml. Specific resulting data is shown in FIGS. 2-8 and in the tables below.
(§3) The values in Tables 3a-f results are spot forming units per 800,000 cells. A value of 2000 was used if spots exceeded the upper limit of detection. All groups had n=5, except groups 1, 2, and 3, which had four mice in each group.

[2] = tested on: GB208_4; test: INFγ ELISPOT, total splenocytes, responses to GB208_4; conditions: re-stimulation GB208_4 10 μg/ml, per mouse
Method: as §1, §2, §3

[3] = tested on: GB208_8; test: INFγ ELISPOT, total splenocytes, responses to GB208_8; conditions: re-stimulation GB208_8 10 μg/ml, per mouse
Method: as §1, §2, §3

[4] = tested on: GB208_1, _4, _8; test: INFγ ELISPOT, total splenocytes, combined responses to GB208_1, _4, _8 (overlapping peptides); conditions: re-stimulation OLPs 10 μg/ml, per mouse
Method: as §1, §2, §3

[5] = tested on: CD4 enriched; test: ELISPOT, CD4 enriched cells, combined responses to GB208_1, _4, _8; conditions: re-stimulation overlapping peptides 20 μg/ml
Method: as §1, §2
(§4) The values in Tables 3g-h results are spot forming units per 500,000 cells. A value of 2000 was used if spots exceeded the upper limit of detection.

[6] = tested on: CD8 enriched; test: ELISPOT, CD8 enriched cells, combined responses to GB208_1, _4, _8; conditions: re-stimulation overlapping peptides 20 μg/ml
Method: as §1, §2, §4

[7] = tested on: GB208_1, _4, _8; test: Endpoint titer, total IgG response to GB208_1, _4, _8; conditions: FIG. 7, total IgG endpoint titer
Method: FIG. 7 depicts data showing enpoint titer data for total IgG response to GB208_1, _4, _8 for each group tested in Example 2.
as §1

[8] = Group 2: no antigen, 50 μg TQL-1055, days 0, 7
[9] = Group 5: 150 μg SLPs + 10 μg TQL-1055, days 0, 7
[10] = Group 6: 150 μg SLPs + 25 μg TQL-1055, days 0, 7
[11] = Group 7: 150 μg SLPs + 50 μg TQL-1055, days 0, 7
[12] = Group 8: 150 μg SLPs + 100 μg TQL-1055, days 0, 7
[13] = Group 11: 150 μg SLPs + 50 μg TQL-1055, days 0, 14

CC1O[C@@H](OC2C(O)[C@@H](NC(=O)CCCCCCCCCCC(=O)O)C(CO)O[C@H]2OC(=O)[C@]23CCC(C)(C)CC2C2=CCC4C5(C)CC[C@H](O)C(C)(C=O)C5CCC4(C)[C@]2(C)CC3O)C(O)C(O)[C@H]1O[C@@H]1OC[C@@H](O)C(O)C1O (stereo partly shown) [TQL-1055]
SLP1-specific INFγ responses in splenocytes [1, 8]: 0 spot forming units per 800,000 cells | SLP1-specific INFγ responses in splenocytes [1, 9]: 0 spot forming units per 800,000 cells (2×) and 4 spot forming units per 800,000 cells and 11 spot forming units per 800,000 cells and 5 spot forming units per 800,000 cells | SLP1-specific INFγ responses in splenocytes [1, 10]: 3 spot forming units per 800,000 cells and 4 spot forming units per 800,000 cells and 25 spot forming units per 800,000 cells and 12 spot forming units per 800,000 cells and 30 spot forming units per 800,000 cells | SLP1-specific INFγ responses in splenocytes [1, 11]: 3 spot forming units per 800,000 cells and 13 spot forming units per 800,000 cells and 4 spot forming units per 800,000 cells and 18 spot forming units per 800,000 cells and 25 spot forming units per 800,000 cells | SLP1-specific INFγ responses in splenocytes [1, 12]: 0 spot forming units per 800,000 cells and 5 spot forming units per 800,000 cells and 7 spot forming units per 800,000 cells and 29 spot forming units per 800,000 cells and 3 spot forming units per 800,000 cells | SLP1-specific INFγ responses in splenocytes [1, 13]: 3 spot forming units per 800,000 cells (2×) and 20 spot forming units per 800,000 cells and 94 spot forming units per 800,000 cells and 4 spot forming units per 800,000 cells | SLP4-specific INFγ responses in splenocytes [2, 8]: 0 spot forming units per 800,000 cells | SLP4-specific INFγ responses in splenocytes [2, 9]: 31 spot forming units per 800,000 cells and 135 spot forming units per 800,000 cells and 21 spot forming units per 800,000 cells and 183 spot forming units per 800,000 cells and 72 spot forming units per 800,000 cells | SLP4-specific INFγ responses in splenocytes [2, 10]: 102 spot forming units per 800,000 cells and 70 spot forming units per 800,000 cells and 431 spot forming units per 800,000 cells and 22 spot forming units per 800,000 cells and 169 spot forming units per 800,000 cells | SLP4-specific INFγ responses in splenocytes [2, 11]: 68 spot forming units per 800,000 cells and 23 spot forming units per 800,000 cells and 142 spot forming units per 800,000 cells and 93 spot forming units per 800,000 cells and 42 spot forming units per 800,000 cells | SLP4-specific INFγ responses in splenocytes [2, 12]: 30 spot forming units per 800,000 cells and 37 spot forming units per 800,000 cells and 19 spot forming units per 800,000 cells and 76 spot forming units per 800,000 cells and 78 spot forming units per 800,000 cells | SLP4-specific INFγ responses in splenocytes [2, 13]: 43 spot forming units per 800,000 cells and 96 spot forming units per 800,000 cells and 31 spot forming units per 800,000 cells and 258 spot forming units per 800,000 cells and 79 spot forming units per 800,000 cells | SLP8-specific INFγ responses in splenocytes [3, 8]: 0 spot forming units per 800,000 cells (3×) and 2 spot forming units per 800,000 cells | SLP8-specific INFγ responses in splenocytes [3, 9]: 0 spot forming units per 800,000 cells (2×) and 13 spot forming units per 800,000 cells and 15 spot forming units per 800,000 cells and 16 spot forming units per 800,000 cells | SLP8-specific INFγ responses in splenocytes [3, 10]: 21 spot forming units per 800,000 cells (2×) and 5 spot forming units per 800,000 cells and 53 spot forming units per 800,000 cells and 3 spot forming units per 800,000 cells | SLP8-specific INFγ responses in splenocytes [3, 11]: 29 spot forming units per 800,000 cells and 5 spot forming units per 800,000 cells and 55 spot forming units per 800,000 cells and 286 spot forming units per 800,000 cells and 20 spot forming units per 800,000 cells | SLP8-specific INFγ responses in splenocytes [3, 12]: 15 spot forming units per 800,000 cells and 0 spot forming units per 800,000 cells and 2 spot forming units per 800,000 cells and 29 spot forming units per 800,000 cells and 4 spot forming units per 800,000 cells | SLP8-specific INFγ responses in splenocytes [3, 13]: 59 spot forming units per 800,000 cells and 33 spot forming units per 800,000 cells and 93 spot forming units per 800,000 cells and 164 spot forming units per 800,000 cells and 136 spot forming units per 800,000 cells | INFγ responses in splenocytes to SLPs 1, 4, 8 [4, 8]: 0.5 spot forming units per 800,000 cells (2×) and 2.5 spot forming units per 800,000 cells and 2 spot forming units per 800,000 cells | INFγ responses in splenocytes to SLPs 1, 4, 8 [4, 9]: 12.5 spot forming units per 800,000 cells and 20 spot forming units per 800,000 cells and 11 spot forming units per 800,000 cells and 115 spot forming units per 800,000 cells and 53 spot forming units per 800,000 cells | INFγ responses in splenocytes to SLPs 1, 4, 8 [4, 10]: 104.5 spot forming units per 800,000 cells and 39 spot forming units per 800,000 cells and 338 spot forming units per 800,000 cells and 12.5 spot forming units per 800,000 cells and 167.5 spot forming units per 800,000 cells | INFγ responses in splenocytes to SLPs 1, 4, 8 [4, 11]: 56 spot forming units per 800,000 cells and 32 spot forming units per 800,000 cells and 138 spot forming units per 800,000 cells and 139 spot forming units per 800,000 cells and 59.5 spot forming units per 800,000 cells | INFγ responses in splenocytes to SLPs 1, 4, 8 [4, 12]: 42.5 spot forming units per 800,000 cells and 22 spot forming units per 800,000 cells and 17 spot forming units per 800,000 cells and 74.5 spot forming units per 800,000 cells and 73 spot forming units per 800,000 cells | INFγ responses in splenocytes to SLPs 1, 4, 8 [4, 13]: 70 spot forming units per 800,000 cells and 85 spot forming units per 800,000 cells and 32.5 spot forming units per 800,000 cells and 319.5 spot forming units per 800,000 cells and 112 spot forming units per 800,000 cells | CD4 Responses, OLP pool SLP 1, 4, 8 [5, 8]: 0 spot forming units per 500,000 cells | CD4 Responses, OLP pool SLP 1, 4, 8 [5, 9]: 48.5 spot forming units per 500,000 cells | CD4 Responses, OLP pool SLP 1, 4, 8 [5, 10]: 149.5 spot forming units per 500,000 cells | CD4 Responses, OLP pool SLP 1, 4, 8 [5, 11]: 88.5 spot forming units per 500,000 cells | CD4 Responses, OLP pool SLP 1, 4, 8 [5, 12]: 28.5 spot forming units per 500,000 cells | CD4 Responses, OLP pool SLP 1, 4, 8 [5, 13]: 79 spot forming units per 500,000 cells | CD8 Responses, OLP pool SLP 1, 4, 8 [6, 8]: 2.5 spot forming units per 500,000 cells | CD8 Responses, OLP pool SLP 1, 4, 8 [6, 9]: 6.5 spot forming units per 500,000 cells | CD8 Responses, OLP pool SLP 1, 4, 8 [6, 10]: 5 spot forming units per 500,000 cells | CD8 Responses, OLP pool SLP 1, 4, 8 [6, 11]: 5.5 spot forming units per 500,000 cells | CD8 Responses, OLP pool SLP 1, 4, 8 [6, 12]: 6.5 spot forming units per 500,000 cells | CD8 Responses, OLP pool SLP 1, 4, 8 [6, 13]: 3.5 spot forming units per 500,000 cells | antibody response for antibodies specific to GB208_1, _4, and _8 compared with GEN-AS3 [7]: in line with or better than GEN-AS3

From patent US11324821B2, “Triterpene saponin analogues” (ADJUVANCE TECHNOLOGIES, INC., priority 2017, dated 2022)
